Laboratory results from PubChem BioAssay (NCI).
Values joined by “and” are separate entries in the source; they are usually repeats but may differ in a detail not shown here. Identical values can stand only once.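 Cells were grown in 96-well plates and exposed to each compound for 48 hours at five concentrations; endpoints were interpolated linearly between bracketing concentrations, or set to the highest concentration if not reached. The concentration for 50% growth inhibition is given as GI50. TGI denotes the concentration required for complete inhibition of growth.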

Tests used:
Assay in all cases: NCI-60 cell line screen, 48 h
[1] = test system: 786-0 renal
[2] = test system: A498 renal
[3] = test system: A549 NSCLC
[4] = test system: ACHN renal
[5] = test system: BT-549 breast
[6] = test system: CAKI-1 renal
[7] = test system: CCRF-CEM leukemia
[8] = test system: COLO 205 colon
[9] = test system: DLD-1 colon
[10] = test system: DMS 114 small cell lung
[11] = test system: DMS 273 small cell lung
[12] = test system: DU-145 prostate
[13] = test system: EKVX NSCLC
[14] = test system: HCC-2998 colon
[15] = test system: HCT-116 colon
[16] = test system: HCT-15 colon
[17] = test system: HL-60(TB) leukemia
[18] = test system: HOP-62 NSCLC
[19] = test system: HOP-92 NSCLC
[20] = test system: HS 578T breast
[21] = test system: HT29 colon
[22] = test system: IGROV1 ovarian
[23] = test system: K-562 leukemia
[24] = test system: KM12 colon
[25] = test system: KM20L2 colon
[26] = test system: LOX IMVI melanoma
[27] = test system: LXFL 529 NSCLC
[28] = test system: M14 melanoma
[29] = test system: M19-MEL melanoma
[30] = test system: MALME-3M melanoma
[31] = test system: MCF7 breast
[32] = test system: MDA-MB-231 breast
[33] = test system: MDA-MB-435
[34] = test system: MDA-N
[35] = test system: MOLT-4 leukemia
[36] = test system: NCI-H226 lung
[37] = test system: NCI-H23 lung
[38] = test system: NCI-H460 lung
[39] = test system: NCI-H522 lung
[40] = test system: NCI/ADR-RES ovarian
[41] = test system: OVCAR-3 ovarian
[42] = test system: OVCAR-4 ovarian
[43] = test system: OVCAR-5 ovarian
[44] = test system: OVCAR-8 ovarian
[45] = test system: PC-3 prostate
[46] = test system: RPMI-8226 leukemia
[47] = test system: RXF 393 renal
[48] = test system: SF-268 CNS
[49] = test system: SF-295 CNS
[50] = test system: SF-539 CNS
[51] = test system: SK-MEL-2 melanoma
[52] = test system: SK-MEL-28 melanoma
[53] = test system: SK-MEL-5 melanoma
[54] = test system: SK-OV-3 ovarian
[55] = test system: SN12C renal
[56] = test system: SNB-19 CNS
[57] = test system: SNB-75 CNS
[58] = test system: SNB-78 CNS
[59] = test system: SR leukemia
[60] = test system: SW-620 colon
[61] = test system: T-47D breast
[62] = test system: TK-10 renal
[63] = test system: U251 CNS
[64] = test system: UACC-257 melanoma
[65] = test system: UACC-62 melanoma
[66] = test system: UO-31 renal
[67] = test system: XF 498 CNS

O=C1C=CC(=O)c2c1c1c(c3c2C2c4ccccc4C3c3ccccc32)C2c3ccccc3C1c1ccccc12
TGI [1]: 2.99 µM and 2.88 µM | TGI [2]: 11.1 µM | GI50 [3]: 3.08 µM | TGI [3]: 21.9 µM | GI50 [4]: 1.96 µM | TGI [4]: 3.43 µM and 3.16 µM | TGI [5]: 13.7 µM | GI50 [6]: 1.5 µM | TGI [6]: 2.83 µM and 3.25 µM | GI50 [7]: 0.451 µM | TGI [7]: 2.93 µM | GI50 [8]: 1.67 µM | TGI [8]: 3.66 µM and 2.86 µM | TGI [9]: 2.3 µM | TGI [10]: 4.41 µM | TGI [11]: 4.08 µM | TGI [12]: 28.4 µM | GI50 [13]: 6.11 µM | TGI [13]: 8.53 µM | GI50 [14]: 4.91 µM | TGI [14]: 17.4 µM | TGI [15]: 2.85 µM and 2.91 µM | GI50 [16]: 1.22 µM | TGI [16]: 2.77 µM and 2.95 µM | GI50 [17]: 0.657 µM | TGI [17]: 4.1 µM and 4.85 µM | GI50 [18]: 6.47 µM | TGI [18]: 35.1 µM | GI50 [19]: 1.65 µM | TGI [19]: 3.08 µM and 2.47 µM | GI50 [20]: 2.38 µM | TGI [20]: 6.24 µM | GI50 [21]: 1.64 µM | TGI [21]: 4.19 µM and 4.29 µM | GI50 [22]: 2.08 µM | TGI [22]: 4.58 µM and 14.7 µM | GI50 [23]: 0.552 µM | TGI [23]: 3.94 µM and 10.7 µM | GI50 [24]: 2.49 µM | TGI [24]: 25.5 µM | TGI [25]: 15.2 µM | TGI [26]: 2.91 µM and 3.08 µM | TGI [27]: 2.27 µM | TGI [28]: 3.29 µM and 3.12 µM | TGI [29]: 3.6 µM | TGI [30]: 3.07 µM and 3.05 µM | GI50 [31]: 2.58 µM | TGI [31]: 3.29 µM and 7.55 µM | GI50 [32]: 2.02 µM | TGI [32]: 4.09 µM | TGI [33]: 3.34 µM and 3.35 µM | TGI [34]: 2.91 µM and 3.01 µM | GI50 [35]: 0.393 µM | TGI [35]: > 54.5 µM | GI50 [36]: 1.57 µM | TGI [36]: 3.02 µM and 11.1 µM | GI50 [37]: 1.81 µM | TGI [37]: 4.36 µM and 6.61 µM | GI50 [38]: 3.85 µM | TGI [38]: 26.8 µM | GI50 [39]: 0.254 µM | TGI [39]: 0.775 µM and 1.42 µM | GI50 [40]: 2.64 µM | TGI [40]: 6.2 µM | TGI [41]: 3.3 µM | TGI [42]: 3.92 µM | TGI [43]: 16.3 µM | GI50 [44]: 2.78 µM | TGI [44]: 2.94 µM | GI50 [45]: 9.64 µM | TGI [45]: 3.37 µM and 21.6 µM | GI50 [46]: 0.479 µM | TGI [46]: > 22.1 µM | GI50 [47]: 2.33 µM | TGI [47]: 3.86 µM and 3 µM | TGI [48]: 16.5 µM | GI50 [49]: 3.21 µM | TGI [49]: 30.4 µM | TGI [50]: 11.5 µM | TGI [51]: 4.25 µM | TGI [52]: 2.83 µM | GI50 [53]: 1.52 µM | TGI [53]: 3.11 µM and 6.21 µM | TGI [54]: 28.6 µM | GI50 [55]: 1.43 µM | TGI [55]: 3 µM and 7.45 µM | GI50 [56]: 3.62 µM | TGI [56]: 34.4 µM | TGI [57]: 24.4 µM | TGI [58]: 3.57 µM | GI50 [59]: 0.386 µM | TGI [59]: > 43.4 µM | GI50 [60]: 0.588 µM | TGI [60]: 4.82 µM and 2.16 µM | GI50 [61]: 2 µM | TGI [61]: 3.25 µM and 3.49 µM | TGI [62]: 3.31 µM and 3.4 µM | GI50 [63]: 4.05 µM | TGI [63]: 20.5 µM | TGI [64]: 3.58 µM | GI50 [65]: 1.74 µM | TGI [65]: 4.37 µM and 4.7 µM | GI50 [66]: 1.62 µM | TGI [66]: 3.09 µM and 4.32 µM | TGI [67]: 3.34 µM
